Drawing on US12590062B2, “PD-1/PD-L1 inhibitors” (Gilead Sciences, Inc., priority 2017, dated 2026), this text covers IC50 and EC50 for 18 molecules.

The target of one experiment is PD-1/PD-L1 (Homo sapiens, UniProt Q9NZQ7). Briefly: PD-1/PD-L1 biochemical protein-protein interaction assay (ALPHA). It is filed as binding. The following applies: 0.3 nM His tagged PD-L1, 2.5 nM biotinylated Fc-PD-1, 60 minutes at 25° C., read-out: IC50 PD-L1-PD-1 Alpha IC50-mono PD-L1-fcP-D1. An outline of the steps: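 IC50 values derive from four-parameter fits of ALPHA signal decrease. Assay: 0.3 nM His-tagged PD-L1 with 2.5 nM biotinylated Fc-PD-1, Hepes pH 7.4 with 0.005% Tween 20 and 0.01% BSA, 60 min at 25° C, then anti-His acceptor and streptavidin donor beads.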
PD-1/PD-L1, sequence (Q9NZQ7 19-238 limits assumed): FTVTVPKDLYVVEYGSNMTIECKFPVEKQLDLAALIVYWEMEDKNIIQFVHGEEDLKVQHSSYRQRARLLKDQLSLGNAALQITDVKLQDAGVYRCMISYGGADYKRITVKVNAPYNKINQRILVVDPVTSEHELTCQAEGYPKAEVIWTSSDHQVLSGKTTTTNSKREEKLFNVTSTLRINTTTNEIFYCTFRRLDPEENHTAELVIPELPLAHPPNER

Another experiment has as its target T1, PD-1/PD-L1 interaction (Homo sapiens, UniProt Q9NZQ7).
T1 construct: expressed in transfected cells; host or cells: CHO cells (aAPC-PD-L1) co-cultured with Jurkat cells overexpressing PD-1 and an NFAT-luciferase reporter
Briefly: PD-1/PD-L1 NFAT reporter co-culture assay. It is filed as cell-based. The following applies: Jurkat PD-1 NFAT-luciferase cells co-cultured with aAPC-PD-L1 CHO cells, 6 hrs at 37° C.; read-out: EC50 NFAT Luciferase. The method, boiled down: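 Restoration of TCR-driven NFAT luciferase signal: 6 h, 37 °C co-culture of PD-1 Jurkat reporter cells (pre-mixed with compound) on overnight-seeded PD-L1/anti-CD3 CHO monolayer. ONE-Glo luminescence; dose-response fitted to four-parameter equation for EC50.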

T1 sequence (Q9NZQ7 19-290): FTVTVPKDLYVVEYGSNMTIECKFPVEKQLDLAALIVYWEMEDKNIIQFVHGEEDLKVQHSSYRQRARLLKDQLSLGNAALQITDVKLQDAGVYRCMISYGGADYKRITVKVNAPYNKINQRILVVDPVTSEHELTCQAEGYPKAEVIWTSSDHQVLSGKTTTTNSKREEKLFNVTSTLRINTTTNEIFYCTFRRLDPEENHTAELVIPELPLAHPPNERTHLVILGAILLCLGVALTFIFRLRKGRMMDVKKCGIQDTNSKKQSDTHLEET

A word on the IC50: it is the point on the concentration scale where inhibition reaches its midpoint. As a reminder, the EC50 is the concentration needed to bring the measured effect to its halfway point. Turning to `N#Cc1cncc(COc2cc(C(=O)N3CCc4c(-c5cccc6c5CCN6C(=O)c5ccc(CNC[C@@H](O)CC(=O)O)c(OCc6cncc(C#N)c6)c5)cccc43)ccc2CNC[C@@H](O)CC(=O)O)c1` [Example 267, (3S,3′S)-4,4′-(((([4,4′-biindoline]-1,1′-dicarbonyl)bis(2-((5-cyanopyridin-3-yl)methoxy)-4,1-phenylene))bis(methylene))bis(azanediyl))bis(3-hydroxybutanoic acid)], on PD-1/PD-L1, the IC50 was 1.1 nM. The EC50 on PD-1/PD-L1 interaction was found to be 8540 nM.

On to `Cc1c(COc2nc(OCc3ccc(N4CCOCC4)nc3)c(CNC[C@@H](O)CC(=O)O)cc2Br)cccc1-c1cccc(COc2nc(OCc3ccc(N4CCOCC4)nc3)c(CNC[C@@H](O)CC(=O)O)cc2Br)c1C` [Example 269, (3S,3′S)-4,4′-((((((2,2′-dimethyl-[1,1′-biphenyl]-3,3′-diyl)bis(methylene))bis(oxy))bis(5-bromo-2-((6-morpholinopyridin-3-yl)methoxy)pyridine-6,3-diyl))bis(methylene))bis(azanediyl))bis(3-hydroxybutanoic acid)], for which the IC50 at PD-1/PD-L1 amounted to 12.3 nM. The EC50 on PD-1/PD-L1 interaction was no less than 50000 nM.

Consider `CCOc1nc(OCc2cccc(-c3cccc(COc4ccc(CNCCO)c(OCC)n4)c3C)c2C)ccc1CNCCO` [Example 271, 2,2′-((((((2,2′-dimethyl-[1,1′-biphenyl]-3,3′-diyl)bis(methylene))bis(oxy))bis(2-ethoxypyridine-6,3-diyl))bis(methylene))bis(azanediyl))bis(ethan-1-ol)], for which the IC50 at PD-1/PD-L1 was determined as 56 nM. At PD-1/PD-L1 interaction, the EC50 is no less than 50000 nM.

`Cc1c(COc2ccc(CNC[C@@H](O)CC(=O)O)c(-c3cncc(C#N)c3)c2)cccc1-c1cccc(COc2ccc(CNC[C@@H](O)CC(=O)O)c(-c3cncc(C#N)c3)c2)c1C` [Example 272, (3S,3′S)-4,4′-((((((2,2′-dimethyl-[1,1′-biphenyl]-3,3′-diyl)bis(methylene))bis(oxy))bis(2-(5-cyanopyridin-3-yl)-4,1-phenylene))bis(methylene))bis(azanediyl))bis(3-hydroxybutanoic acid)]: the IC50 on PD-1/PD-L1 amounted to 2.5 nM. Further, the EC50 on PD-1/PD-L1 interaction was determined as 37700 nM.

For the molecule `Cc1c(COc2cc(OCc3nc4ccccc4[nH]3)c(CNC[C@@H](O)CC(=O)O)cc2Cl)cccc1-c1cccc(COc2cc(OCc3nc4ccccc4[nH]3)c(CNC[C@@H](O)CC(=O)O)cc2Cl)c1C` [Example 273, (3S,3′S)-4,4′-((((((2,2′-dimethyl-[1,1′-biphenyl]-3,3′-diyl)bis(methylene))bis(oxy))bis(2-((1H-benzo[d]imidazol-2-yl)methoxy)-5-chloro-4,1-phenylene))bis(methylene))bis(azanediyl))bis(3-hydroxybutanoic acid)], the IC50 on PD-1/PD-L1 amounted to 200 nM. In addition, the EC50 at PD-1/PD-L1 interaction is no less than 50000 nM.

As for `Cc1c(COc2cc(OCc3cncc(C#N)c3)c(CNCc3ccccn3)cc2Br)cccc1-c1cccc(COc2cc(OCc3cncc(C#N)c3)c(CNCc3ccccn3)cc2Br)c1C` [Example 275, 5,5′-((((((2,2′-dimethyl-[1,1′-biphenyl]-3,3′-diyl)bis(methylene))bis(oxy))bis(4-bromo-6-(((pyridin-2-ylmethyl)amino)methyl)-3,1-phenylene))bis(oxy))bis(methylene))dinicotinonitrile], on PD-1/PD-L1, the IC50 is 154 nM. At PD-1/PD-L1 interaction, the EC50 came out at 10400 nM.

On to `Cc1c(COc2cc(OCc3cncc(C#N)c3)c(CNC[C@@H](F)C(C)(C)O)cc2Cl)cccc1-c1cccc(COc2cc(OCc3cncc(C#N)c3)c(CNC[C@@H](F)C(C)(C)O)cc2Cl)c1C` [Example 276, 5,5′-((((((2,2′-dimethyl-[1,1′-biphenyl]-3,3′-diyl)bis(methylene))bis(oxy))bis(4-chloro-6-((((R)-2-fluoro-3-hydroxy-3-methylbutyl)amino)methyl)-3,1-phenylene))bis(oxy))bis(methylene))dinicotinonitrile], for which, at PD-1/PD-L1, the 50% inhibitory concentration (IC50) was found to be 77.8 nM. Besides, the EC50 on PD-1/PD-L1 interaction is 2050 nM.

In the case of `Cc1c(COc2cc(O)c(CNC[C@@H](F)C(C)(C)O)cc2Cl)cccc1-c1cccc(COc2cc(OCc3cncc(C#N)c3)c(CNC[C@@H](F)C(C)(C)O)cc2Cl)c1C` [Example 277, 5-((4-chloro-5-((3′-((2-chloro-4-((((R)-2-fluoro-3-hydroxy-3-methylbutyl)amino)methyl)-5-hydroxyphenoxy)methyl)-2,2′-dimethyl-[1,1′-biphenyl]-3-yl)methoxy)-2-((((R)-2-fluoro-3-hydroxy-3-methylbutyl)amino)methyl)phenoxy)methyl)nicotinonitrile], at PD-1/PD-L1, the IC50 stood at 125 nM. Further, at PD-1/PD-L1 interaction, the EC50 is no less than 50000 nM.

Consider `Cc1c(COc2cc(OCc3cncc(C#N)c3)c(CNC(CO)CO)cc2Cl)cccc1-c1cccc(COc2cc(OCc3cncc(C#N)c3)c(CNC(CO)CO)cc2Cl)c1C` [Example 281, 5,5′-((((((2,2′-dimethyl-[1,1′-biphenyl]-3,3′-diyl)bis(methylene))bis(oxy))bis(4-chloro-6-(((1,3-dihydroxypropan-2-yl)amino)methyl)-3,1-phenylene))bis(oxy))bis(methylene))dinicotinonitrile], for which, at PD-1/PD-L1, the IC50 was found to be 8.7 nM. For the same molecule, the EC50 on PD-1/PD-L1 interaction worked out at 488 nM.

Turning to `Cc1c(COc2ccc(CNC[C@@H](O)CC(=O)O)cc2Cl)cccc1-c1cccc(COc2ccc(CNC[C@@H](O)CC(=O)O)cc2Cl)c1C` [Example 283, (3S,3′S)-4,4′-((((((2,2′-dimethyl-[1,1′-biphenyl]-3,3′-diyl)bis(methylene))bis(oxy))bis(3-chloro-4,1-phenylene))bis(methylene))bis(azanediyl))bis(3-hydroxybutanoic acid)], on PD-1/PD-L1, the 50% inhibitory concentration (IC50) is 0.8 nM. Moreover, the EC50 at PD-1/PD-L1 interaction was found to be 20900 nM.

`CCOC(=O)CNCc1cc(Cl)c(O[C@H]2CCc3c(-c4cccc5c4CC[C@@H]5Oc4nc(OC)c(CNCC(=O)OCC)cc4Cl)cccc32)nc1OC` [Example 287, Diethyl 2,2′-((((((1S,1′S)-2,2′,3,3′-tetrahydro-1H,1′H-[4,4′-biindene]-1,1′-diyl)bis(oxy))bis(5-chloro-2-methoxypyridine-6,3-diyl))bis(methylene))bis(azanediyl))diacetate]: the IC50 on PD-1/PD-L1 was 457 nM. Further, the EC50 at PD-1/PD-L1 interaction was 958 nM.

In the case of `CC(CO)(NCc1cc(Cl)c(O[C@H]2CCc3c(-c4cccc5c4CC[C@@H]5Oc4nc(OCc5cncc(S(C)(=O)=O)c5)c(CNC(C)(CO)C(=O)O)cc4Cl)cccc32)nc1OCc1cncc(S(C)(=O)=O)c1)C(=O)O` (stereo partly drawn) [Example 298], on PD-1/PD-L1, the IC50 came to 0.051 nM. For the same molecule, the EC50 on PD-1/PD-L1 interaction worked out at 21 nM.

Consider `Cc1c(COc2cc(OCc3cncc(C#N)c3)c(CNC[C@@H](O)CC(=O)O)cc2Cl)cccc1-c1cccc(-c2ccc(OCCNC[C@@H](O)CC(=O)O)c(F)c2)c1C` [Example 314], for which, at PD-1/PD-L1, the IC50 is 0.064 nM. For the same molecule, at PD-1/PD-L1 interaction, the EC50 was determined as 188 nM.

Turning to `Cc1c(COc2cc(OCc3cncc(C#N)c3)c(CNC[C@@H](O)CC(=O)O)cc2Cl)cccc1-c1cccc(-c2ccc(OCCNC[C@@H](O)CC(=O)O)cc2Cl)c1C` [Example 315, (S)-4-((4-((4″-(2-(((S)-3-carboxy-2-hydroxypropyl)amino)ethoxy)-2″-chloro-2,2′-dimethyl-[1,1′:3′,1″-terphenyl]-3-yl)methoxy)-5-chloro-2-((5-cyanopyridin-3-yl)methoxy)benzyl)amino)-3-hydroxybutanoic acid], at PD-1/PD-L1, the IC50 stood at 0.242 nM. The EC50 on PD-1/PD-L1 interaction is 1250 nM.

As for `Cc1c(-c2ccc(OCCNC[C@@H](O)CC(=O)O)cc2)cccc1-c1cccc2c1CC[C@@H]2Oc1nc(OCCCC#N)c(CNC[C@@H](O)CC(=O)O)cc1Br` [Example 327, (S)-4-((2-((3′-((S)-1-((3-bromo-5-((((S)-3-carboxy-2-hydroxypropyl)amino)methyl)-6-(3-cyanopropoxy)pyridin-2-yl)oxy)-2,3-dihydro-1H-inden-4-yl)-2′-methyl-[1,1′-biphenyl]-4-yl)oxy)ethyl)amino)-3-hydroxybutanoic acid], the IC50 at PD-1/PD-L1 was 0.051 nM. Further, on PD-1/PD-L1 interaction, the EC50 is 114 nM.

Turning to `Cc1c(COc2cc(OCc3cncc(C#N)c3)c(CNC[C@@H](O)CC(=O)O)cc2Cl)cccc1-c1cccc(-c2ccc3ncnc(NCCO)c3c2)c1C` [Example 337, (S)-4-((5-chloro-2-((5-cyanopyridin-3-yl)methoxy)-4-((3′-(4-((2-hydroxyethyl)amino)quinazolin-6-yl)-2,2′-dimethyl-[1,1′-biphenyl]-3-yl)methoxy)benzyl)amino)-3-hydroxybutanoic acid], on PD-1/PD-L1, the IC50 worked out at 0.287 nM. Further, on PD-1/PD-L1 interaction, the EC50 is 1920 nM.

In the case of `Cc1c(COc2cc(OCc3cncc(C#N)c3)c(CNC[C@@H](O)CC(=O)O)cc2Cl)cccc1-c1cccc(-c2ccc(N3CCNCC3)cc2)c1C` [Example 339, (S)-4-((5-chloro-2-((5-cyanopyridin-3-yl)methoxy)-4-((2,2′-dimethyl-4″-(piperazin-1-yl)-[1,1′:3′,1″-terphenyl]-3-yl)methoxy)benzyl)amino)-3-hydroxybutanoic acid], the IC50 at PD-1/PD-L1 stood at 1.3 nM. The EC50 on PD-1/PD-L1 interaction is 2220 nM.

Consider `COc1cc(OCc2cccc(-c3cccc(COc4cc(OCc5cncc(C#N)c5)c(CNC[C@@H](O)CC(=O)O)cc4Cl)c3C)c2C)c(Cl)cc1CNCC(=O)NS(C)(=O)=O` [Example 355, (S)-4-((5-chloro-4-((3′-((2-chloro-5-methoxy-4-(((2-(methylsulfonamido)-2-oxoethyl)amino)methyl)phenoxy)methyl)-2,2′-dimethyl-[1,1′-biphenyl]-3-yl)methoxy)-2-((5-cyanopyridin-3-yl)methoxy)benzyl)amino)-3-hydroxybutanoic acid], for which the IC50 at PD-1/PD-L1 was determined as 0.148 nM. Further, at PD-1/PD-L1 interaction, the EC50 was 712 nM.
